{"source": "patent US20130150399A1", "about": "“INHIBITORS OF THE UNFOLDED PROTEIN RESPONSE AND METHODS FOR THEIR USE” (The Board of Trustees of the Leland Stanford Junior …, priority 2006, published 2013)", "key": {"[1]": {"test_system": "HIF-1α", "test": "Western immunoblot of HIF-1α, HT1080 cells under hypoxia", "type": "cell-based, human", "settings": "2 μM; 24 hours of hypoxia", "experimental": "(§1) Cells (2×10^6) were cultured in 10-cm dishes, collected using a cell scraper at 4° C., and lysed by addition of 150 μl cell lysis buffer [50 mM Tris pH 7.4, 150 mM NaCl, 10% glycerol, 0.5% Triton X-100. 0.5% NP-40, 2 mM Na3VO4, 20 mM beta-glycerophosphate, 10 mM NaF, 1 mM DTT, 1 mM PMSF). Lysates were centrifuged for 5 min at 10,000×g, and proteins (˜40 μg) were resolved by SDS-PAGE followed by semi-dry transfer to nitrocellulose membranes. Membranes were blocked in TBS-5% milk supplemented with 0.1% Tween-20. The blots were then probed overnight with relevant antibodies, washed, and incubated for 2 hours with species-specific secondary antibodies conjugated to horseradish peroxidase. After washing in block solution, immunoreactive material was detected by enhanced chemiluminescence (SuperSignal West Dura Extended, Pierce, Inc., Rockville, Ill.).\nA. XBP-luciferase reporter construct. […] After 24 hours, luciferase activity was analyzed in an automated plate reader. For each cell line, values are expressed as the percent inhibition of the median for Tm/Tg-treated wells, corrected for background. […] Values are expressed as the fold increases over uninduced levels. […] Cells were harvested, lysed, and analyzed by immunoblotting with antisera specific for HIF-1α (top), XBP-1s (middle) or actin (bottom). […] Total RNA was analyzed by Northern blotting using radiolabeled probes specific for P58^IPK or DER-1. […]"}, "[2]": {"test_system": "phospho-IRE1α", "test": "Western immunoblot of phospho-IRE1α (IRE1α kinase), HT1080 cells", "type": "cell-based, human", "settings": "preincubated 16 hours, 2.5 μM; Tm 5 μg/ml", "experimental": "as §1\nHT1080 cells were exposed to DMSO vehicle (lane 1), irestatin 9389 (2.5 μM; lane 2) for 16 hours or Tm (5 μg/ml; lane 3) for 8 hours. Following treatments, cells were harvested, lysed, and analyzed by immunoblotting using anti-Grp78 antibody (top) or anti-actin (bottom) as a loading control. […] Cell lysates were analyzed by Western immunoblotting using anti-IRE1α (bottom) or anti-phospho-IRE1α antibodies (top). […] Lysates were analyzed by Western blot using antisera specific for phospho-JNK1 (top) or total JNK1 (bottom). […]"}}}
{"smiles": "Cc1csc(NC(=O)CSc2nc3c(c(C(F)(F)F)c2C#N)CCC3)n1", "note": "[Compound 9389]", "values": [{"measurement": "expression of HIF-1α", "setting": "[1]", "result": "not affected"}, {"measurement": "levels of phospho-IRE1α after addition of Tm", "setting": "[2]", "result": "rapid increase in levels of phospho-IRE1α"}]}
